# From patent publication US12428455B2, “Dominant negative CEBPB and CEBPD proteins and methods of use for decreasing viability of neoplastic cells” (The Trustees of Columbia University in the City of New York, priority 2018, dated 2025)
# Experiments:
# [1] = system: MDA-MB 231, HCT116, and A375 cells; experiment: Peptide treatment after doxorubicin pre-treatment, cell number; type: cell-based; conditions: 100 nM, 24 hours
# Procedure: Replicate cultures of MDA-MB 231, HCT116, and A375 cells were pretreated with 100 nM doxorubicin for 24 hours, and then treated with 1 μM, 3 μM, 10 μM, or 20 μM CP-dn-CEBPB and CP-dn-CEBPD peptides, maintained for 6 days, and then assessed for cell number. The bar graphs of FIGS. 31A (MDA-MB 231, CP-dn-CEBPB), 31C (MDA-MB 231, CP-dn-CEBPBD, 31E (HCT116, CP-dn-CEBPBD), 31G (HCT116, CP-dn-CEBPD), 31I (A375, CP-dn-CEBPBB), and 31K (A375, CP-dn-CEBPBD) show relative cell numbers for each condition as compared to untreated controls. The line graphs of FIGS. 31B (MDA-MB 231, CP-dn-CEBPB), 31D (MDA-MB 231, CP-dn-CEBPBD), 31F (HCT116, CP-dn-CEBPB), 31H (HCT116, CP-dn-CEBPD), 31J (A375, CP-dn-CEBPB), and 31L (A375, CP-dn-CEBPBD) show the response as normalized in each case so that 100 represents the relative number of surviving cells that received the indicated level of doxorubicin, but no peptide treatment.
# [2] = system: paclitaxel-resistant T98G cells; experiment: Cell number, paclitaxel-resistant T98G cells; type: cell-based; conditions: 6 days; 0 μM to 50 μM peptide or 0 nM to 50 nM paclitaxel
# Procedure: Replicate cultures of T98G wild type cells and paclitaxel-resistant T98G cells were treated with 0 nM to 50 nM paclitaxel or 0 μM to 50 μM CP-dn-CEBPB or CP-dn-CEBPD peptides, maintained for 6 days, and then assessed for cell number. Paclitaxel resistant T98G cells were inhibited by both CP-dn-CEBPB (FIG. 28A) and CP-dn-CEBPD (FIG. 28B), but, as expected were not inhibited by paclitaxel (FIG. 28C). This establishes that CP-dn-CEBPB and CP-dn-CEBPD may be effective against chemotherapy-resistant cells.
smiles,measurement,setting,value
"COc1cccc2c1C(=O)c1c(O)c3c(c(O)c1C2=O)C[C@@](O)(C(=O)CO)C[C@@H]3O[C@H]1C[C@H](N)[C@H](O)[C@H](C)O1 [doxorubicin, reference compound]",effect of doxorubicin pre-treatment on growth of the cancer cells,[1],inhibited grown of the cancer cells
"CC(=O)O[C@H]1C(=O)[C@@]2(C)[C@H]([C@H](OC(=O)c3ccccc3)[C@]3(O)C[C@H](OC(=O)[C@H](O)[C@@H](NC(=O)c4ccccc4)c4ccccc4)C(C)=C1C3(C)C)[C@]1(OC(C)=O)CO[C@@H]1C[C@@H]2O [paclitaxel, reference compound]",inhibition of paclitaxel-resistant T98G cells (cell number),[2],not inhibited
